Entries after “also recorded” stand apart in the source; their conditions may differ.
Key:
[1] = system: Streptomyces natalensis npi287; experiment: Inducer bioassay: induction of natamycin production in mutant npi287 on solid SPG medium, read as inhibition zone in a Candida utilis overlay; type: cell-based; details: for inducing activity on natamycin production by npi287: bioassay, Streptomyces natalensis npi287
Method: Dose-response representation is obtained from measuring points at 0, 110, 166, 220, 333, 446 and 500 nM of IP factor. Y-axis: natamycin-induced inhibition zone diameter in Candida utilis overlays in cm (see Example 5); x-axis: concentration of IP factor in nM.
The biological activity of IP factor was determined by its ability to induce natamycin production by mutant strain Streptomyces natalensis npi287 in solid SPG medium. After allowing growth of Streptomyces natalensis npi287 for 2 days at 30° C., samples of culture broths […] or different fractions from IP factor purification were added to wells (7 mm diameter) in the agar layer. The plate was overlaid with a culture of Candida utilis and incubated for 24 h at 28° C. The increment of the diameter of the natamycin inhibition zone after induction of natamycin in strain npi287 was proportional to the amount of IP factor in the sample.
The availability of the pure IP factor made it possible to quantify its inducing effect using the standard inducer assay with the npi287 strain (FIG. 2). […] The IP factor increased two-fold the diameter of natamycin inhibition zone (to above 50 millimeters) at concentration of 350 nM and the assay was saturated at concentrations above 400 nM. A threshold level of IP factor of about 50 nM was always required to detect the induction of natamycin production.

Streptomyces griseus HH1 [2] = details: stated as well-known; cited from earlier work
Streptomyces griseus HH1 [3] = experiment: Restoration of streptomycin production in the A factor negative strain; type: cell-based; details: HPLC-pure IP factor, Streptomyces griseus HH1 mutant
Description: In the examples given below, the following strains were used: The wild type Streptomyces natalensis ATCC 27448 was used as the parental strain to isolate different npi mutants. Streptomyces natalensis cultures were maintained in solid TBO sporulation medium (containing 20 g tomato paste per liter; 25 g oat meal per liter; and 25 g agar per liter) as described by Aparicio et al. (Chem. Biol. 7, 895-905, 2000). Candida utilis CECT 1061 (synonym Pichia jadinii) was used as test strain in the bioassay of the antifungal activity of natamycin. Cultures of Streptomyces griseus IFO 13350 (formerly described as Streptomyces bikiniensis IFO 13350) were used to produce A factor in YMPG medium (Horinouchi et al., J. Antibiot. 38, 636-641, 1985). Streptomyces griseus HH1 (an A factor negative strain) was used to quantify the A factor inducing activity.
The Streptomyces griseus 35570 A factor was purified by following its biological activity on the test strain Streptomyces griseus HH1, a mutant lacking streptomycin production due to its deficiency in A factor biosynthesis.

[4] = system: Streptomyces natalensis (wild type and npi287 mutant); experiment: Stimulation of sporulation of Streptomyces natalensis; type: cell-based
[5] = Solvent extraction of clarified culture broth (partition between organic and aqueous phase); type: physicochemical
Method: The culture broth (15 liters) from Streptomyces natalensis wild type strain grown for 24 h in YED medium in a Braun Biostat C fermentor was concentrated 10-fold in a vacuum evaporator. The concentrated broth was clarified by precipitating the proteins with 6M HCl at pH 3.0 in the cold room. The clarified broth was adjusted to pH 7.0 with concentrated NaOH and extracted. […] Enough IP factor could be extracted by repeated extractions with ethyl acetate to allow a good purification. The organic phases were then collected and concentrated to dryness under vacuum and the resultant product was dissolved in 100 ml of 10% methanol (v/v) and applied to an active carbon column (30×3 cm) previously equilibrated with the same solvent (10% methanol, v/v). The retained compounds including the IP factor were fractionated by stepwise elution (flow 2 ml/min) with 50% methanol (v/v), 100% methanol, 10% ethyl acetate in methanol (v/v), 50% ethyl acetate in methanol (v/v), and pure ethyl acetate (100%). […] The IP factor-containing fraction was then concentrated, applied onto a Sephadex GIO column (2000×1 cm) and eluted with distilled water (flow 0.8 ml/min). This size exclusion chromatography yielded 40 ml of active fractions.

[6] = system: Streptomyces natalensis ATCC 27448; experiment: Natamycin production in liquid cultures of the wild type strain with exogenous auto inducer; type: cell-based; details: 300 nM
Description: FIG. 3A: Cell dry weight (▪); y-axis: dry weight concentration in mg/ml; x-axis: time in hours. FIG. 3B: (▴) Control without IP factor addition; (O) with IP factor addition; y-axis: natamycin concentration in μg/ml; x-axis: time in hours.
FIG. 4A: Cell dry weight (♦); y-axis: dry weight concentration in mg/ml; x-axis: time in hours. FIG. 4B: (▪) Control without IP factor addition; (□) with IP factor addition; y-axis: natamycin concentration in μg/ml; x-axis: time in hours.
FIG. 5A: Cell dry weight (▴); y-axis: dry weight concentration in mg/ml; x-axis: time in hours. FIG. 5B: (▪) Control without IP factor addition; (□) with IP factor addition; y-axis: natamycin concentration in μg/ml; x-axis: time in hours.
Four different complex media were used for quantification of the IP factor concentration and its relationship to natamycin production. These include: NBG medium (OXOID) supplemented with glucose (5 g/l); YEME medium (yeast extract 3 g/l; peptone […]; malt extract 3 g/l and glucose 10 g/l); TSB medium (DIFCO) and YED medium (yeast extract 10 g/l; glucose 10 g/l). In addition two defined media were also used to quantify the inducer production: Streptomyces MM (Kieser et al. in “Practical Streptomyces Genetics”, John Innes Foundation, Norwich, UK, 2000) and Lechevalier defined medium (Martin and McDaniel, Eur. J. Appl. Microbiol. 3, 135-144, 1976).
The production of natamycin in liquid cultures was routinely quantified by spectrophotometric determination at 319 nm. A 0.5 ml aliquot of the culture was extracted with 5 ml of methanol and diluted with distilled water; the concentration of natamycin was quantified as described previously (Aparicio et al. (Chem. Biol. 7, 895-905, 2000)) using a pure sample of natamycin (Sigma Chem. Co) as standard.

| Structure (SMILES) | inducing activity on natamycin production by npi287 [1] | stimulation of sporulation (Streptomyces griseus HH1 [2]) | restoration of streptomycin production (Streptomyces griseus HH1 [3]) | stimulation of sporulation ([4]; npi287 mutant) | stimulation of sporulation ([4]; wild type Streptomyces natalensis) | part remaining in the aqueous phase ([5]; ethyl acetate extraction at acidic, neutral or slightly basic (pH 7.5) pH) | part remaining in the aqueous phase ([5]; repeated extraction with chloroform) | diameter of natamycin inhibition zone ([1]; 350 nM IP factor) | fold increase of the diameter of natamycin inhibition zone ([1]; 350 nM IP factor) | threshold level required to detect induction of natamycin production ([1]; standard inducer assay) | IP factor concentration to which npi287 clearly responded ([1]; standard inducer assay, FIG. 2) | concentration above which the assay was saturated ([1]; standard inducer assay, FIG. 2) | upper concentration of linear response of antibiotic production ([1]; standard inducer assay, FIG. 2) | production of natamycin on addition of exogenous inducer ([6]; NBG medium, FIG. 4) | production of natamycin on addition of exogenous inducer ([6]; TSB medium, FIG. 3) | production of natamycin on addition of exogenous inducer ([6]; YEME medium, FIG. 5) |
| --- | --- | --- | --- | --- | --- | --- | --- | --- | --- | --- | --- | --- | --- | --- | --- | --- |
| CC(C)CCCCC(=O)[C@@H]1C(=O)OCC1CO (stereo partly drawn) [A factor, 2-(6′-methylheptanoyl)-3R-hydroxymethyl-4-butanolide, reference compound] | some inducing activity; also recorded: elicited natamycin production | stimulation of sporulation | – | – | – | – | – | – | – | – | – | – | – | – | – | – |
| NC(CO)(CO)C(N)(CO)CO [IP factor, 2,3-diamino-2,3-bis(hydroxymethyl)-1,4-butanediol] | strong inducing activity | – | negative | did not stimulate sporulation | did not stimulate sporulation | significant proportion | about 80% | above 50 millimeters | two-fold | about 50 nM | 100 nM | above 400 nM | up to 350 nM | stimulated | stimulated | stimulated |

Source: US20060275873A1, “Autoinducer compound to improve the productivity of natamycin streptomyces strains” (priority 2003, published 2006)
